Our source for the PAE values is ChEMBL document CHEMBL1629634, “Postantibiotic effect of tigecycline against 14 gram-positive organisms” (Antimicrob Agents Chemother, 2009).

What all share (format): functional
The test system of test [1] is Acinetobacter baumannii. Briefly: Antibacterial activity against multidrug-resistant Acinetobacter baumannii producing OXA-24 and OXA-51 beta-lactamases assessed as post antibiotic effect at 2 times MIC concentration incubated for 1 hr measured after 1:1000 dilution by viable plate count method.
Test [2] relates to Staphylococcus aureus. Briefly: Antibacterial activity against vancomycin-intermediate methicillin-resistant Staphylococcus aureus assessed as post-antibiotic sub-MIC effect at 0.4 times MIC concentration pretreated with 10 times MIC concentration for 1 hr followed by 1:1000 dilution by viable plate count method.
Test [3] relates to Enterobacter cloacae. Put plainly: Antibacterial activity against Enterobacter cloacae assessed as post-antibiotic sub-MIC effect at 0.4 times MIC concentration pretreated with 10 times MIC concentration for 1 hr followed by 1:1000 dilution by viable plate count method.
The subject of test [4] is Acinetobacter baumannii. Put plainly: Antibacterial activity against Acinetobacter baumannii assessed as post-antibiotic sub-MIC effect at 0.3 times MIC concentration pretreated with 6 times MIC concentration for 1 hr followed by 1:1000 dilution by viable plate count method.
Another test has as its system Enterococcus faecalis. Put plainly: Antibacterial activity against vancomycin-sensitive Enterococcus faecalis assessed as post antibiotic effect at 10 times MIC concentration incubated for 1 hr measured after 1:1000 dilution by viable plate count method.
The subject of test [5] is Staphylococcus aureus. Put plainly: Antibacterial activity against vancomycin-intermediate methicillin-resistant Staphylococcus aureus assessed as post-antibiotic sub-MIC effect at 0.3 times MIC concentration pretreated with 10 times MIC concentration for 1 hr followed by 1:1000 dilution by viable plate count method.
Test [6] deals with Haemophilus influenzae. Briefly: Antibacterial activity against beta-lactamase deficient ampicillin-resistant Haemophilus influenzae assessed as post-antibiotic sub-MIC effect at 0.4 times MIC concentration pretreated with 10 times MIC concentration for 1 hr followed by 1:1000 dilution by viable plate count method.
Test [7] relates to Enterobacter cloacae. Put plainly: Antibacterial activity against Enterobacter cloacae assessed as post antibiotic effect at 10 times MIC concentration incubated for 1 hr measured after 1:1000 dilution by viable plate count method.
Another test concerns Klebsiella pneumoniae. Briefly: Antibacterial activity against Klebsiella pneumoniae assessed as post-antibiotic sub-MIC effect at 0.4 times MIC concentration pretreated with 2 times MIC concentration for 1 hr followed by 1:1000 dilution by viable plate count method.
The test system of test [8] is Haemophilus influenzae. Briefly: Antibacterial activity against amoxicillin, clavulanate-resistant Haemophilus influenzae expressing beta-lactamase assessed as post-antibiotic sub-MIC effect at 0.3 times MIC concentration pretreated with 10 times MIC concentration for 1 hr followed by 1:1000 dilution by viable plate count method.
In test [9] the test system is Staphylococcus aureus. Briefly: Antibacterial activity against vancomycin-sensitive methicillin-resistant Staphylococcus aureus assessed as sub-MIC effect at 0.3 times MIC concentration incubated for 1 hr by viable plate count method.

On to `CN(C)c1cc(NC(=O)CNC(C)(C)C)c(O)c2c1C[C@H]1C[C@H]3[C@H](N(C)C)C(O)=C(C(N)=O)C(=O)[C@@]3(O)C(O)=C1C2=O` [TIGECYCLINE], for which the PAE was found to be 0.7 h in the test on Acinetobacter baumannii [1]; 10 h with Staphylococcus aureus [2]; 7.2 h in the test with Enterobacter cloacae [3]; 10.7 h with Acinetobacter baumannii [4]; 3.9 h in the test with Enterococcus faecalis; 9.9 h in the test with Staphylococcus aureus [5]. Also, the PAE was 2.8 h in the test on Haemophilus influenzae [6]; 1.2 h with Enterobacter cloacae [7]; 2.6 h in the test with Klebsiella pneumoniae; 5.4 h with Haemophilus influenzae [8]; 0.2 h in the test on Staphylococcus aureus [9].
